Experimental data reported in US8722376B2, “Firefly luciferase” (Olympus Corporation, priority 2011, dated 2014).
Positions count from the first letter of the chain named. Numbers in names are those of the source. Like-named read-outs stand apart in the source and are kept apart here.

How the values were obtained:
[1] = system: ELuc (luciferase derived from known click beetles); experiment: Km of ELuc luciferase (luminescence kinetic analysis); assay type: biochemical, click beetle; conditions: 0.1 M Tris-HCl (pH 8.0), MgSO4, measured in a similar manner
Method: (§1) A solution of 0.1 M Tris-HCl (pH 8.0) containing each of the purified luciferase, 4 mM of ATP, and 8 mM of MgSO4 was connected to the standard pump of the luminometer, and the measurements was carried out at the same time as addition of 50 μl of the solution to the well. A Luminescensor (ATTO) was used for the measurements. Measurements were repeated 3 times for each luciferin concentration.
(§2) The peak intensity of the obtained photo count value was plotted with respect to luciferin concentration S, defining the initial rate as V. The plots were subjected to curve fitting of Michaelis Menten type, thereby giving Km values. The curve fitting was performed by a nonlinear least-squares method, and the search of the parameter was performed by a Newton method.
(§3) 4-3. Measurement of Km Value with Respect to ATP
(§4) Under various ATP concentrations, the luminescent intensity of the obtained luciferase was measured. Based on the results, Km values with respect to ATP was determined.
(§5) Various […] types of ATP solutions were prepared by adding ATP to 0.1 M Tris-HCl (pH 8.0). These solutions contain ATP at final concentration of 5, 10, 20, 40, 80, 160, 320, 480, 640, 800, 1280, 1600, or 1920 μM. These ATP solutions were each injected into 96-hole in a microplate at a volume of 50 μl. […]
(§6) Table 1 also indicates Km values for known firefly luciferases, measured in a similar manner. […]

[2] = system: CBG (luciferase derived from known click beetles); experiment: Km of CBG luciferase (luminescence kinetic analysis); assay type: biochemical, click beetle; conditions: 0.1 M Tris-HCl (pH 8.0), MgSO4, measured in a similar manner
Method: as §1, §2, §3, §4, §5, §6

[3] = system: CBR (luciferase derived from known click beetles); experiment: Km of CBR luciferase (luminescence kinetic analysis); assay type: biochemical, click beetle; conditions: 0.1 M Tris-HCl (pH 8.0), MgSO4, measured in a similar manner
Method: as §1, §2, §3, §4, §5, §6

[4] = system: SP1 luciferase, Luciola sp1 (Malaysian firefly, genus Luciola), wild type, SEQ ID NO: 1; experiment: Km of SP1 luciferase (luminescence kinetic analysis); assay type: biochemical; conditions: for Km: 0.1 M Tris-HCl (pH 8.0), MgSO4, Michaelis Menten curve fitting; for Km values with respect to ATP and D-luciferin, compared with known luciferases: FIG. 2, SP1 luciferase versus known luciferases
Method: The measurements were carried out ten times for each sample, and the average of absorbency was used for the calculation.
Various 12 types of ATP solutions were prepared by adding ATP to 0.1 M Tris-HCl (pH 8.0). These solutions contain ATP at final concentration of 5, 10, 20, 40, 80, 160, 320, 480, 640, 800, 1280, 1600, or 1920 μM. These ATP solutions were each injected into 96-hole in a microplate at a volume of 50 μl. […] Measurement was repeated 3 times for each ATP concentration.
The peak intensities of the obtained photon count value were plotted with respect to ATP concentration S, with an initial rate V. The plots were subjected to curve fitting of Michaelis Menten type, thereby giving Km value. The curve fitting was performed by a nonlinear least-squares method, and the search of the parameter was performed by a Newton method.

[5] = Measurement of luminescent intensity of purified luciferase compared with Rhodamine 6G and P. pyralis luciferase; assay type: biochemical; conditions: purified enzymes, integration of light 300 nm to 650 nm for 10 seconds
Method: Rhodamine 6G was dissolved into 0.1 M citric acid/0.2 M Na2HPO4 (pH 4.0) solution. The Rhodamine 6G solution was centrifuged for 1 minute at 15,000 rpm, and the supernatant was collected. The collected supernatant is diluted with 0.1 M citric acid/0.2 M Na2HPO4 solution 1000 fold, and the absorbance thereof was measured. Measurement was carried out by NanoVue (GE Healthcare). The measurement at 530 nm was repeated 5 times, and the average absorbance 0.048 was obtained. The concentration of the original Rhodamine 6G solution was calculated by using ε value of Rhodamine (1.16×10^5 mol^−1cm^−1), and the value 414 μM was obtained. The solution was diluted with 0.1 M citric acid/0.2 M Na2HPO4 solution (pH 4.0) to prepare 30 μM of a diluted solution.
Solution 1 having the following composition was prepared with use of the diluted solution.
Solution 2 was prepared by dissolving bis (2,4,6-trichlorophenyl)oxlate (TCPO) so that the final concentration thereof is 3 mM.
100 μl of solution 1 was injected for each well of 96-hole microplate. Measurement was started at the same time as addition of 50 μl of solution 2 with use of a pump, and integration value of photon counts for 10 seconds from addition of solution 2 was obtained. […]
A concentration of the obtained sample was measured by a colorimetric method, and the concentrations of P. pyralsis luciferase and SP1 luciferase were confirmed. […]

HeLa cells = experiment: Luminescence activity of SP1 mutants expressed in HeLa cells, corrected by hRluc internal standard; assay type: cell-based; conditions: 90 minutes after D-luciferin addition, corrected by hRluc luminescence at 10 minutes
Excerpt: The fragment of the nucleic acid having the base sequence of SEQ ID NO: 35 was inserted into between SgfI site and PmeI site of a pF9A CMV hRluc-neo FlexiR vector (Promega). The fragment of the nucleic acid having the base sequence of SEQ ID NO: 36 was inserted into between SgfI site and PmeI site of another pF9A CMV hRluc-neo FlexiR vector. Two types of the obtained expression vectors were each introduced into HeLa cells, and mutants were expressed.
The luminescence intensity of two types of cells expressing mutants was detected by using a cell expressing the original SP1 luciferase without mutations as a comparison. Here, the luminescence intensity of each Hela cell was corrected using the luminescence based on hRluc gene of pF9A CMV hRluc-neo FlexiR vector (Promega) as an internal standard.

HeLa cell = experiment: Luminescent intensity of SP1 luciferase expressed in a mammal cell; assay type: cell-based; conditions: expression in HeLa cell, 1 mM D-luciferin, integration for 10 seconds
Method: SP1 luciferase was expressed in a HeLa cell, and the luminescent intensity in a cell was measured.
For introduction of SP1 luciferase gene, four types of expression vectors were prepared. Nucleic acids each containing a gene prepared by deleting recognition sequences of BamHI and EcoRI from the original SP1 luciferase gene obtained from Luciola sp1 (SEQ ID NO: 3), a gene further optimized for expression in a mammal cell (SEQ ID NO: 4), and two types of genes to which Kozak sequence was further added (SEQ ID NOS: 29 and 30) were each inserted into the multi-cloning site between BamHI and EcoRI of pcDNA3.1(+) vector (Invitrogen). Further, for comparison, a nucleic acid containing a known P. pyralis luciferase gene optimized for expression in a mammal cell was inserted into pcDNA3.1(+) vector similarly.
Five types of plasmids obtained in such a manner described above were each subjected to gene transfection to a HeLa cell by a lipofection method, and D-MEM culture medium was exchanged after 24 hours. […] The luminescent intensities shown in FIG. 4 are integration values for 10 seconds.

[6] = D-luciferin, read-out: Km for ATP
[7] = read-out: Km for D-luciferin, ATP

## Nc1ncnc2c1ncn2[C@@H]1O[C@H](COP(=O)(O)OP(=O)(O)OP(=O)(O)O)[C@@H](O)[C@H]1O [ATP]
[1]; [6]
  Km: 182 µM
[2]; [6]
  Km: 58.4 µM
[3]; [6]
  Km: 47.1 µM
[4]; [6]
  Km: 195 µM
[4]
  Km values with respect to ATP and D-luciferin, compared with known luciferases: higher Km values

## O=C(O)[C@H]1CSC(c2nc3ccc(O)cc3s2)=N1 [D-luciferin]
[1]; [7]
  Km: 12.7 µM
[2]; [7]
  Km: 1.44 µM
[3]; [7]
  Km: 33.3 µM
[4]
  Km values with respect to ATP and D-luciferin, compared with known luciferases: higher Km values
[4]; [7]
  Km: 44.6 µM

B1: SP1 luciferase: luciferase of SEQ ID NO: 1 derived from Malaysian firefly Luciola sp1 (protein, listed as Luciola sp.)
chain: MNNMDDGEHIVVGPQPFYPVEEGSAGTQLLKYLKQYSKLGAIAFSNAHTKVDISYAEYLDTSVRLAQALINYGIPIDGRIALCSENCEEFYFPVLAGLYIGAGVAPTNEIYTLRELVHSLGISKPTIVFSSKKGLEKVITVQKTVTCIKTIVILDSKVDYQGYDCLETFIKKYLPAGFSVENFIPREVNRKEQVALVMNSSGSTGLPKGVQITHEGAVTRFSHARDPIYGNQVSPGTAILTIVPFHHGFGMFTNLGYLTCGYRIVMLTKFDEELFLKTLADYKCTSVILVPTLFAILSKSVLLEKYDLSNLVEIASGGAPLAKEVGEAVARRFNLPGIRQGYGLTETTSAIIITPEGDDKPGASGKIVPLFRAKVVDLDTQKTLGPNRRGEICVKGPMLMKGYVDDPVATSQIIDKDGWLHTGDIGYFDEDKHFFIVDRLKSLIKYKGYQVPPAELESVLLQHPDIFDAGVAGLPDPLAGELPGAVVVLEKGRHMTEQQVMDYVAGQVSNAKRLRGGVRFVDEVPKGLTGKIDSKAIREILKSPKAKM
[5]
  luminescent intensity in comparison to that of P. pyralis luciferase: 4.9 times

B2: SP1 mutant 1: SP1 luciferase with mutations D438G, I532R and E356R; amino acid sequence SEQ ID NO: 37 (protein)
chain: B1 chain with E356R, D438G, I532R
modifications: Luciola sp. mutant 1
HeLa cells
  luminescence intensity in comparison to the original SP1: increased

B3: SP1 mutant 2: SP1 luciferase with mutations E356R and V368A; amino acid sequence SEQ ID NO: 38 (protein)
chain: B1 chain with E356R, V368A
modifications: Luciola sp. mutant 2
HeLa cells
  luminescence intensity in comparison to the original SP1: increased

B4: SP1 luciferase codon optimized: SP1 luciferase expressed from gene optimized for expression in a mammal cell (SEQ ID NO: 4) (protein, listed as Luciola sp.)
chain: B1 chain
HeLa cell
  increase of luminescent intensity in comparison to SP1 luciferase without codon optimization: 16.2 times
  luminescent intensity in comparison to that of P. pyralis luciferase after codon optimization: 1.7 times
